Entries after “also recorded” stand apart in the source; their conditions may differ. Marks after values point to notes of the source that are not given here.
How the values were obtained:
[1] = Serum drug concentrations after oral PYD bromide in OSA patients (Example 1, LC-MS); format: in vivo, human
Method: (§1) A randomized, double-blind, placebo-controlled, crossover study with PYD was undertaken in 12 patients with moderate to severe OSA. PYD was prepared by grinding pyridostigmine bromide pills manufactured by Sunve Pharmaceutical Co., LTD., Shanghai, China and recapsulated into hard shell capsules. PYD bromide at 30 mg, 60 mg, 120 mg, or placebo was orally administered to patients before sleep each night for a total of four continuous nights. Lights went out within 5 min after the administration. Blood was drawn at 0, 0.5, 1, 1.5, 2, 2.5, 3, 4 and 7 hours after the administration, and serum drug concentrations were determined by a LC-MS method after proper pre-treatment of the blood samples. Patients were monitored by either a PSG or a PM throughout the nights.

[2] = system: patients with moderate to severe OSA; assay: Randomized, double-blind, placebo-controlled, crossover study with PYD in 12 patients with moderate to severe OSA (Example 1; PSG or PM); format: in vivo, human
Method: as §1

[3] = system: diagnosed OSA patients; assay: Double-blind, randomized, cross-over, placebo-controlled study of efficacy and safety of PYD in 6 OSA patients (Example 2; PSG, questionnaires); format: in vivo, human; details: for Apnea/Hypopnea Index (AHI): 90 mg PYD bromide oral, mean of 6 patients; for Apnea/Hypopnea Index (AHI) / Apnea index (AI) / Hypopnea Index (HI): events per hour; for Apnea/Hypopnea Index (AHI) Reduction (%) / Hypopnea Index (HI) Reduction (%) / Apnea index (AI) Reduction (%) / Apnea/Hypopnea time Reduction (%) / Low Sat O2 Reduction (%) / Snore score Reduction (%): 90 mg vs placebo; for Apnea/Hypopnea time (%): percentage of total sleep time
Method: A double-blind, randomized, cross-over, placebo-controlled study was conducted to evaluate the efficacy and safety of PYD in 6 diagnosed OSA patients. The study consists of a one-day acclimatization period followed immediately by a 2-day double-blind treatment period when patients received either 90 mg PYD bromide in hard shell capsules or a matching placebo before sleep with a light snack. All patients were required to maintain in a supine position throughout of the night, as OSA is most severe when patients is on their back. In such a way, the results are expected to be more conservative in judging therapeutic effects of the drug. Lights were turned off within 5 min after the administration of the drug. The patients were monitored by a PSG. Apnea, hypopnea, snoring, blood O2 saturation were monitored, recorded, and scored. Sleep questionnaires were taken everyday after sleep to evaluate the impact on the sleep satisfaction and at evening to evaluate the quality of life during the daytime. Safety of the drug was also monitored and evaluated.

[4] = system: OSA patient; assay: Randomized, double-blind, dose escalating study in one OSA patient (Example 3; PSG); format: in vivo, human; details: FIG. 9
Method: A randomized, double-blind, dose escalating study was carried out in one patient to determine optimum PYD dose range for treating OSA. The patient was administered to with 30, 60, 90 mg PYD bromide or a placebo before sleep, and was monitored by PSG throughout the night. AHI, AI, and total apnea/hypopnea time were lower in the nights administered with 30 or 60 mg PYD bromide compared with the night with 90 mg PYD bromide (FIG. 9). The number of low O2 saturation events was lower with 60 mg PYD bromide compared with that of 90 mg PYD bromide. The results obtained from the clinical study described in Example 2 were reexamined to compare the therapeutic responses in the windows of 2-5 hours and 5-7 hours after sleep. […] Since serum PYD concentrations are expected to be lower within 5-7 hours comparing with those within 2-5 hours, the optimum dose range may be less than 90 mg of PYD bromide in a single dose.

[5] = in vivo; cited from earlier work
[6] = one patient, three treatment nights (30, 60, 120 mg), 2-7 hours after lights off
[7] = 0-2 hr, P value >0.05, listed as Drug
[8] = 0-2 hr, P value >0.05, listed as PYD bromide
[9] = 2-7 hr, P value >0.05, listed as Drug
[10] = 2-7 hr, P value >0.05, listed as PYD bromide

## CN(C)C(=O)Oc1ccc[n+](C)c1 [PYD, pyridostigmine]
[1]; one patient monitored by PSG all four nights, 30, 60, 120 mg oral, FIG. 2
  serum drug concentrations in one patient: 3 to 45 ng/mL
[1]; oral PYD bromide 30, 60 or 120 mg before sleep, 12 OSA patients, FIG. 1
  time of peak serum drug concentration: 3 to 4 h
[2]; 30, 60, 120 mg oral, during the study
  serious adverse reactions: No serious adverse reaction was reported
[2]; 'particularly between'
  serum drug concentrations at which patients particularly responded positively: 3 to 60 ng/mL
[2]; one patient, 0-2 hours after lights off
  AHI and events of low O2 saturation: largely not changed
[2]; one patient, 30-60 mg compared with 120 mg PYD bromide, FIG. 2
  AHI and low O2 saturation, dose response: lower AHI and less low O2 saturation
[2]; [6]
  reduction of AHI compared with placebo: 11-23%
  reduction of events of low blood O2 saturation compared with placebo: 10-18%
[2]; patients treated with the highest dose
  adverse reactions at the highest dose: stomach upset and mild muscle cramp
[2]; positive responses: reduction of AHI, AI, apnea/hypopnea time, snoring, increase in minimum oxygen saturation
  serum drug concentrations at which patients responded positively: 2 to 150 ng/mL
[3]; 0-2 hr after sleep
  Apnea/Hypopnea Index (AHI): 29.6
[3]; 2-7 hr after sleep
  Apnea/Hypopnea Index (AHI): 20.4
[3]; 0-2 hr after sleep, P value >0.05, listed as Drug
  Apnea/Hypopnea Index (AHI) Reduction (%): 13.1*** %
[3]; 0-2 hr after sleep, P value >0.05, listed as PYD bromide
  Apnea/Hypopnea Index (AHI) Reduction (%): No statistically significant reduction
[3]; 0-2 hr, P value >0.05
  Hypopnea Index (HI) Reduction (%): −17.7*** %
[3]; [7]
  Apnea index (AI) Reduction (%): 26.7*** %
  Apnea/Hypopnea time Reduction (%): 21.5*** %
  Low Sat O2 Reduction (%): 6.6*** %
  Snore score Reduction (%): 3.3*** %
[3]; [8]
  Apnea index (AI) Reduction (%): No statistically significant reduction
  Apnea/Hypopnea time Reduction (%): No statistically significant reduction
  Low Sat O2 Reduction (%): No statistically significant reduction
  Snore score Reduction (%): No statistically significant reduction
[3]; 2-7 hr after sleep, P value <0.01 (0.0003), listed as Drug
  Apnea/Hypopnea Index (AHI) Reduction (%): 28.0* %
[3]; 2-7 hr after sleep, P value <0.01 (0.0003), listed as PYD bromide
  Apnea/Hypopnea Index (AHI) Reduction (%): 28.0%
[3]; 2-7 hr, 0.01 < P value < 0.05 (0.0133), listed as Drug
  Apnea/Hypopnea time Reduction (%): 36.4** %
[3]; 2-7 hr, 0.01 < P value < 0.05 (0.0133), listed as PYD bromide
  Apnea/Hypopnea time Reduction (%): 36.4%
[3]; 2-7 hr, 0.01 < P value < 0.05 (0.0314), listed as Drug
  Apnea index (AI) Reduction (%): 37.3** %
[3]; 2-7 hr, 0.01 < P value < 0.05 (0.0314), listed as PYD bromide
  Apnea index (AI) Reduction (%): 37.3%
[3]; 2-7 hr, P value <0.01 (0.0041), listed as Drug
  Snore score Reduction (%): 18.8* %
[3]; 2-7 hr, P value <0.01 (0.0041), listed as PYD bromide
  Snore score Reduction (%): 18.8%
[3]; [9]
  Hypopnea Index (HI) Reduction (%): 10.3*** %
  Low Sat O2 Reduction (%): 12.5*** %
[3]; [10]
  Hypopnea Index (HI) Reduction (%): 10.3%
  Low Sat O2 Reduction (%): 12.5%
[3]; 90 mg, 0-2 hr after sleep
  Low Sat O2 (events/hr): 35.1 events/hr
  Snore score (events/hr): 528 events/hr
  Apnea index (AI): 16.9
  Hypopnea Index (HI): 12.0
[3]; 90 mg, 0-2 hr
  Apnea/Hypopnea time (%): 18.7%
[3]; 90 mg, 2-7 hr after sleep
  Low Sat O2 (events/hr): 24.9 events/hr
  Snore score (events/hr): 485 events/hr
  Apnea index (AI): 11.7
  Hypopnea Index (HI): 8.7
[3]; 90 mg, 2-7 hr
  Apnea/Hypopnea time (%): 14.5%
[3]; 90 mg, 5-7 hours compared with 2-5 hours after sleep, FIG. 10
  PSG scores (AHI, AI, total apnea/hypopnea time, low O2 saturation events): statistically significantly lower
[3]; daytime following the drug treatment night
  daytime quality of life reported by patients: more energy, be more concentrated and be less sleepy
[3]; single dose 90 mg PYD bromide
  tolerability / serious adverse reactions: well tolerated; also recorded: no serious adverse reaction was reported
[3]; single dose 90 mg, one patient
  adverse reactions found: minor stomach upset
[3]; three patients, treatment night vs placebo night, FIG. 8
  longer total sleep time in the treatment night (average): 33 min
[3]; treatment night compared with placebo night
  noise of snoring: quieter
[3]; treatment night vs placebo night, FIG. 8
  sleep quality, patients' self evaluation questionnaire: better sleep, more clear-headed, more energetic, and more satisfied sleep
[4]; 60 mg compared with 90 mg PYD bromide
  number of low O2 saturation events: lower
[4]; nights with 30 or 60 mg compared with the night with 90 mg PYD bromide
  AHI, AI, and total apnea/hypopnea time: lower
[5]
  elimination half-life: approximately 1.78 hours
